Source: patent publication US20080081827A1, “Use of a Pyrazole-Derived Compound that is an Antagonist for Cannabinoid CB1 Receptors, for Treating or Preventing Chronic Bronchitis or Chronic Obstructive Bronchopneumopathy” (SANOFI AVENTIS, priority 2004, published 2008)
Where two headings read alike, the source gives them in different places.

How the values were obtained:
[1] = obese patients, clinical studies; cited from earlier work
[2] = STRATUS clinical study, nicotine addiction; cited from earlier work
[3] = system: LPS-induced migration of neutrophil and mononuclear cells in the bronchoalveolar space; assay: Migration of cells in the bronchoalveolar space after activation with bacterial LPS; assay type: in vivo; details: mice, doses 0.3 to 30 mg/kg; for ED50: Mus musculus, i.p. 1 hour before 10 μG intratracheal LPS, bronchoalveolar lavage 24 hours after LPS
Procedure: Migration of cells in the bronchoalveolar space after activation with bacterial LPS (lipopolysaccharide).
Mice weighing 28 to 30 g are stimulated by means of an intratracheal exposure to 10 μG of LPS. 24 hours after the injection of LPS, the animals are anaesthetized with pentobarbital and a bronchoalveolar lavage is performed. The lavage fluids are recovered and are centrifuged, and the cells are then resuspended. The number of cells is counted, differentiating the eosinophil, neutrophil and mononuclear cells according to standard morphological criteria.
The intratracheal injection of LPS induces a considerable increase in the number of mononuclear cells and neutrophils in the bronchoalveolar space of the mice.

## Cc1c(C(=O)NN2CCCCC2)nn(-c2ccc(Cl)cc2Cl)c1-c1ccc(Cl)cc1 [rimonabant, N-piperidino-5-(4-chlorophenyl)-1-(2,4-dichlorophenyl)-4-methylpyrazole-3-carboxamide]
[1]
  effect on hunger, calorie intake and body weight: reduces hunger, calorie intake, and the body weight of obese patients
[2]
  effect on giving up smoking: facilitates giving up smoking
[3]; Mononuclear cell, read-out: ED50, inhibition of migration of the mononuclear cells
  ED50: 1.9 mg/kg
[3]; Neutrophil, read-out: effective dose 50 (ED50), inhibition of migration of the neutrophil cells
  ED50: 2.3 mg/kg
[3]; i.p. 1 hour before intratracheal LPS
  inhibition of migration of the neutrophil cells: more than 80%
